Laboratory results published in patent publication US8541588B2, “Sulfonamide derivatives” (Pfizer Limited, priority 2009, dated 2013).

The molecules below were run against T1, Nav1.7 (or SCN9A) channel; HEK cells stably transfected with hSCN9A (Homo sapiens, UniProt Q15858) (assay: Nav1.7 block, PatchXpress 7000 automated whole-cell voltage clamp, estimated IC50 (EIC50)). Conditions: PatchXpress platform; hSCN9A HEK cells held at V1/2 of inactivation; estimated IC50.
T1 construct: expressed in transfected cells
T1 sequence (Q15858 whole entry): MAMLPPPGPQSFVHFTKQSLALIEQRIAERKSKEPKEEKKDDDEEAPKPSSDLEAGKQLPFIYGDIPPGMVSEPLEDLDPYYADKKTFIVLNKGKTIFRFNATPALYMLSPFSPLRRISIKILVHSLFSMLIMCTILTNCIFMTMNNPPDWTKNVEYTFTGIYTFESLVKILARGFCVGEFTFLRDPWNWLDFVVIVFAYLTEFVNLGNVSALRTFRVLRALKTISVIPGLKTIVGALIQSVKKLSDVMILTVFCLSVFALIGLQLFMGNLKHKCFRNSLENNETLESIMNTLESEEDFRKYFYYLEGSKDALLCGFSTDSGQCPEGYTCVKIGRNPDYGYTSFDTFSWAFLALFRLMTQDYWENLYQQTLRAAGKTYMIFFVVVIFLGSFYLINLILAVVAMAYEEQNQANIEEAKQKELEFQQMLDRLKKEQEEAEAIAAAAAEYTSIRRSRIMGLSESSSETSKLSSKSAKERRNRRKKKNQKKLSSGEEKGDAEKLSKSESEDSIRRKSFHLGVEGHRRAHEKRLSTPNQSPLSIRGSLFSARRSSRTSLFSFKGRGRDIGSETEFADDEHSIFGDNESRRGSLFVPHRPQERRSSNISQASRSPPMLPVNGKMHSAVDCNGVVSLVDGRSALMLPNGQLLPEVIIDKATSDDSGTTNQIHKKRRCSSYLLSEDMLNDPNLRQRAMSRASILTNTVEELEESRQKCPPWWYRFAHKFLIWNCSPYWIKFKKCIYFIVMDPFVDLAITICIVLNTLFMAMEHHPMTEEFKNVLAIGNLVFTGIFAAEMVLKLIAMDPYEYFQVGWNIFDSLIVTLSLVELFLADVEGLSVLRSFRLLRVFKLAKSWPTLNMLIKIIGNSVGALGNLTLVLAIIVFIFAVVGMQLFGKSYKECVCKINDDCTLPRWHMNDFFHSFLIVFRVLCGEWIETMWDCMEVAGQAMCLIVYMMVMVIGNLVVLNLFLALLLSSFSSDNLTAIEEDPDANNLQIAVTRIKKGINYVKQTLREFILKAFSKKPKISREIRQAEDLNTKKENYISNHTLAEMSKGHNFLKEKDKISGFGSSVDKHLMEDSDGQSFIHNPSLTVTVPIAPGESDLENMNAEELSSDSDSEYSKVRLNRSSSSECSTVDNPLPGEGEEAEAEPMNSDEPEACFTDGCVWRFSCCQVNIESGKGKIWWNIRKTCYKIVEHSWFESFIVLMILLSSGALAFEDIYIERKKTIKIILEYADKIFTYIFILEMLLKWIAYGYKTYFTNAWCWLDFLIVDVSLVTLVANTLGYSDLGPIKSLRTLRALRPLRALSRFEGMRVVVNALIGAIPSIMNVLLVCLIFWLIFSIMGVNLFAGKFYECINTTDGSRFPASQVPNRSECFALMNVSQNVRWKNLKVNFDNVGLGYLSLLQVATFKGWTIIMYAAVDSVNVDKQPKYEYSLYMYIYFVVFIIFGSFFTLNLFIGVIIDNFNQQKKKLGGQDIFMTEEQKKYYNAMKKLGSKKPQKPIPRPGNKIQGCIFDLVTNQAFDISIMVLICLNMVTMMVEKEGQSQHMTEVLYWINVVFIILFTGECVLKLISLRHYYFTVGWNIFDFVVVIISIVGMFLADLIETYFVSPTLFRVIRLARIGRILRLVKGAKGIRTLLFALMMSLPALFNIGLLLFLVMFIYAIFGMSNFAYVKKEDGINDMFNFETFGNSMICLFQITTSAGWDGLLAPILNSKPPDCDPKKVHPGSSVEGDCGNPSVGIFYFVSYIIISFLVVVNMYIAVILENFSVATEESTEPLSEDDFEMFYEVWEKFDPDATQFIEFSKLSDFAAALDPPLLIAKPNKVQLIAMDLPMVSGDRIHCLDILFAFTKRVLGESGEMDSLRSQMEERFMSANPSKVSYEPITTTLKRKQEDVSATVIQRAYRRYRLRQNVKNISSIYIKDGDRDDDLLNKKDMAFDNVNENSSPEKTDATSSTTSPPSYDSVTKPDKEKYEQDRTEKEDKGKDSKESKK
Assay type: cell-based

| SMILES | IC50 [nM] |
| --- | --- |
| N#Cc1cc(S(=O)(=O)Nc2ncns2)ccc1Oc1ccc(F)cc1-c1ccc(F)cc1F [Example 46, 3-cyano-N-1,2,4-thiadiazol-5-yl-4-[(2′,4′,5-trifluorobiphenyl-2-yl)oxy]benzenesulfonamide] | 210 |
| Cn1nccc1-c1cc(F)cc(F)c1Oc1ccc(S(=O)(=O)Nc2ncns2)cc1C#N [Example 73, 3-cyano-4-[2,4-difluoro-6-(1-methyl-1H-pyrazol-5-yl)phenoxy]-N-1,2,4-thiadiazol-5-ylbenzenesulfonamide] | 23400 |
| COc1ccccc1-c1ccccc1Oc1ccc(S(=O)(=O)Nc2nccs2)c(F)c1 [Example 207, 2-fluoro-4-(2′-methoxybiphenyl-2-yloxy)-N-(thiazol-2-yl)benzenesulfonamide] | 1030 |
| N#Cc1cc(S(=O)(=O)Nc2nccs2)ccc1Oc1cc(C2CC2)nn1C1CCCCC1 [Example 192, 3-Cyano-4-(2-cyclohexyl-5-cyclopropyl-2H-pyrazol-3-yloxy)-N-thiazol-2-yl-benzenesulfonamide] | 2050 |
| N#Cc1cc(S(=O)(=O)Nc2ncns2)ccc1Oc1ccccc1-c1ccc(OC(F)(F)F)cc1 [Example 57, 3-cyano-N-1,2,4-thiadiazol-5-yl-4-{[4′-(trifluoromethoxy)biphenyl-2-yl]oxy}benzenesulfonamide] | 660 |
| N#Cc1cc(S(=O)(=O)Nc2nccs2)ccc1Oc1cc(-c2ccc(Cl)cc2)nn1CC(F)(F)F [Example 189, 4-[5-(4-chloro-phenyl)-2-(2,2,2-trifluoro-ethyl)-2H-pyrazol-3-yloxy]-3-cyano-N-thiazol-2-yl-benzenesulfonamide] | 2800 |
| CCOC(=O)Cn1nc(Cc2ccc(Cl)cc2)cc1Oc1ccc(S(=O)(=O)Nc2ncns2)cc1C#N [Example 92, 3-(4-chloro-benzyl)-5-{2-cyano-4-(1,2,4-thiadiazol-5-ylsulfamoyl)-phenoxy}-pyrazol-1-yl-acetic acid ethyl ester] | 1810 |

Now from value to molecule:

| IC50 [nM] | SMILES |
| --- | --- |
| 2400 | NC(=O)c1cc(S(=O)(=O)Nc2nccs2)ccc1Oc1cnn(Cc2ccc(Cl)cc2)c1 [Example 249, 2-(1-(4-chlorobenzyl)-1H-pyrazol-4-yloxy)-5-(N-thiazol-2-ylsulfamoyl)benzamide] |
| 50 | Cn1nccc1-c1cc(F)ccc1Oc1ccc(S(=O)(=O)Nc2nccs2)cc1C#N [Example 169, 3-cyano-4-(4-fluoro-2-(1-methyl-1H-pyrazol-5-yl)phenoxy)-N-(thiazol-2-yl)benzenesulfonamide] |
| >1000 | N#Cc1cc(S(=O)(=O)Nc2ncns2)ccc1Oc1ccc(F)cc1C1CC1 [Example 6, 3-cyano-4-(2-cyclopropyl-4-fluorophenoxy)-N-1,2,4-thiadiazol-5-ylbenzenesulfonamide] |

Same assay, conditions: estimated IC50; hSCN9A HEK cells, PatchXpress platform; Examples 283-814

| SMILES | IC50 [nM] |
| --- | --- |
| Cn1nccc1-c1cc(C(F)(F)F)ncc1Oc1ccc(S(=O)(=O)Nc2cscn2)cc1C#N [Example 601, 3-cyano-4-{[4-(1-methyl-1H-pyrazol-5-yl)-6-(trifluoromethyl)pyridin-3-yl]oxy}-N-1,3-thiazol-4-ylbenzenesulfonamide] | 940 |
| N#Cc1cc(S(=O)(=O)Nc2nccs2)ccc1Oc1ccc(N2CCNC2=O)cc1 [Example 486, 3-cyano-4-[4-(2-oxoimidazolidin-1-yl)phenoxy]-N-1,3-thiazol-2-ylbenzenesulfonamide] | >1000 |
| CC(C)C1CN(c2ccc(Oc3ccc(S(=O)(=O)Nc4nccs4)cc3C#N)cc2)C(=O)N1 (stereo not drawn) [Example 485, 3-cyano-4-[4-(4-isopropyl-2-oxoimidazolidin-1-yl)phenoxy]-N-1,3-thiazol-2-ylbenzenesulfonamide] | >1000 |
| COc1cccc(-c2cc(Oc3ccc(S(=O)(=O)Nc4ncc(F)s4)cc3C#N)ccc2Cl)c1 [Example 531, 4-[(6-chloro-3′-methoxybiphenyl-3-yl)oxy]-3-cyano-N-(5-fluoro-1,3-thiazol-2-yl)benzenesulfonamide] | 1100 |
| N#Cc1cc(S(=O)(=O)Nc2ncc(Cl)s2)ccc1Oc1ccc(Cl)cc1-c1cn[nH]c1N [Example 583, 4-[2-(5-Amino-1H-pyrazol-4-yl)-4-chlorophenoxy]-N-(5-chloro-1,3-thiazol-2-yl)-3-cyanobenzenesulfonamide] | 13 |
| CCn1nc(C(F)(F)F)cc1-c1cccc(Oc2ccc(S(=O)(=O)Nc3nccs3)cc2C#N)c1 [Example 547, 3-cyano-4-{3-[1-ethyl-3-(trifluoromethyl)-1H-pyrazol-5-yl]phenoxy}-N-1,3-thiazol-2-ylbenzenesulfonamide] | 120 |
| N#Cc1cc(S(=O)(=O)Nc2ncns2)ccc1Oc1ccc(F)cc1-c1ccn[nH]1 [Example 499, 3-cyano-4-[4-fluoro-2-(1H-pyrazol-5-yl)phenoxy]-N-1,2,4-thiadiazol-5-ylbenzenesulfonamide] | 190 |
| O=S(=O)(Nc1nccs1)c1ccc(Oc2ccc(F)cc2-c2cn[nH]c2)c(F)c1 [Example 686, 3-fluoro-4-[4-fluoro-2-(1H-pyrazol-4-yl)phenoxy]-N-1,3-thiazol-2-ylbenzenesulfonamide] | 330 |
| Cn1nccc1-c1ccccc1Oc1ccc(S(=O)(=O)Nc2cscn2)cc1I [Example 629, 3-iodo-4-[2-(1-methyl-1H-pyrazol-5-yl)phenoxy]-N-1,3-thiazol-4-ylbenzenesulfonamide] | 240 |
| O=S(=O)(Nc1ncns1)c1ccc(Oc2ccc(F)cc2-c2ccn[nH]2)c(Cl)c1 [Example 478, 3-chloro-4-[4-fluoro-2-(1H-pyrazol-5-yl)phenoxy]-N-1,2,4-thiadiazol-5-ylbenzenesulfonamide] | 44 |
| CCn1nc(C(C)(C)C#N)cc1-c1ccc(Oc2ccc(S(=O)(=O)Nc3nccs3)cc2C#N)cc1 [Example 548, 3-cyano-4-{4-[3-(1-cyano-1-methylethyl)-1-ethyl-1H-pyrazol-5-yl]phenoxy}-N-1,3-thiazol-2-ylbenzenesulfonamide] | 410 |
| CCn1nc(C(F)(F)F)cc1-c1ccc(Oc2ccc(S(=O)(=O)Nc3ccon3)cc2C#N)cc1 [Example 337, 3-cyano-4-{4-[1-ethyl-3-(trifluoromethyl)-1H-pyrazol-5-yl]phenoxy}-N-isoxazol-3-ylbenzenesulfonamide] | 2500 |
| CCn1nc(C(F)(F)F)cc1-c1ccc(Oc2ccc(S(=O)(=O)Nc3nccs3)cc2C#N)c(F)c1 [Example 328, 3-cyano-4-{4-[1-ethyl-3-(trifluoromethyl)-1H-pyrazol-5-yl]-2-fluorophenoxy}-N-1,3-thiazol-2-ylbenzenesulfonamide] | 81 |
| CC(C)(C)n1nccc1-c1cc(F)ccc1Oc1cc(F)c(S(=O)(=O)Nc2cscn2)cc1Cl [Example 519, 4-[2-(1-tert-butyl-1H-pyrazol-5-yl)-4-fluorophenoxy]-5-chloro-2-fluoro-N-1,3-thiazol-4-ylbenzenesulfonamide] | 1200 |

The remaining lines, values ahead:

| IC50 [nM] | SMILES |
| --- | --- |
| 64 | CC(C)Cc1ccc(Oc2ccc(S(=O)(=O)Nc3nccs3)cc2F)c(-c2ccnn2C)c1 [Example 723, 3-Fluoro-4-[4-isobutyl-2-(1-methyl-1H-pyrazol-5-yl)phenoxy]-N-1,3-thiazol-2-ylbenzenesulfonamide] |
| 2600 | Cn1nncc1-c1cc(F)ccc1Oc1cc(F)c(S(=O)(=O)Nc2cscn2)cc1Cl [Example 523, 5-chloro-2-fluoro-4-[4-fluoro-2-(1-methyl-1H-1,2,3-triazol-5-yl)phenoxy]-N-1,3-thiazol-4-ylbenzenesulfonamide] |
| 11 | Nc1cc(-c2cc(F)ccc2Oc2cc(F)c(S(=O)(=O)Nc3ncns3)cc2F)ccn1 [Example 634, 4-[2-(2-aminopyridin-4-yl)-4-fluorophenoxy]-2,5-difluoro-N-1,2,4-thiadiazol-5-ylbenzenesulfonamide] |
| 11 | N#Cc1cc(S(=O)(=O)Nc2ncns2)ccc1Oc1ccc(I)cc1-c1ccn[nH]1 [Example 506, 3-cyano-4-[4-iodo-2-(1H-pyrazol-5-yl)phenoxy]-N-1,2,4-thiadiazol-5-ylbenzenesulfonamide] |

Same assay, conditions: estimated IC50; hSCN9A HEK cells, PatchXpress platform; Examples 815-1040

| SMILES | IC50 [nM] |
| --- | --- |
| Cn1nccc1-c1cc(Cl)ccc1Oc1ccc(S(=O)(=O)Nc2cccnn2)cc1Cl [Example 862, 3-chloro-4-[4-chloro-2-(1-methyl-1H-pyrazol-5-yl)phenoxy]-N-pyridazin-3-ylbenzenesulfonamide] | 240 |
| N#Cc1cc(S(=O)(=O)Nc2nncs2)ccc1Oc1ccc(Cl)cc1-c1cn[nH]c1 [Example 839, 4-[4-chloro-2-(1H-pyrazol-4-yl)phenoxy]-3-cyano-N-1,3,4-thiadiazol-2-ylbenzenesulfonamide] | 130 |
| N#Cc1ccc(Oc2cc(F)c(S(=O)(=O)Nc3ncns3)cc2Cl)c(-c2cn[nH]c2)c1 [Example 850, 5-chloro-4-[4-cyano-2-(1H-pyrazol-4-yl)phenoxy]-2-fluoro-N-1,2,4-thiadiazol-5-ylbenzenesulfonamide] | 3.2 |
| Nc1cc(-c2cc(C(F)(F)F)ccc2Oc2ccc(S(=O)(=O)Nc3ccncn3)cc2Cl)ccn1 [Example 1013, 4-[2-(2-aminopyridin-4-yl)-4-(trifluoromethyl)phenoxy]-3-chloro-N-pyrimidin-4-ylbenzenesulfonamide] | 4.8 |

Other lines, results leading:

| IC50 [nM] | SMILES |
| --- | --- |
| 2.1 | N#Cc1cc(S(=O)(=O)Nc2nncs2)ccc1Oc1ccc(Cl)cc1-c1ccnc(N2CCNCC2)c1 [Example 835, 4-[4-chloro-2-(2-piperazin-1-ylpyridin-4-yl)phenoxy]-3-cyano-N-1,3,4-thiadiazol-2-ylbenzenesulfonamide] |
| 23 | O=S(=O)(Nc1nncs1)c1cc(Cl)c(Oc2cc(C(F)(F)F)c(F)cc2-c2ccnnc2)cc1F [Example 947, 5-chloro-2-fluoro-4-[4-fluoro-2-pyridazin-4-yl-5-(trifluoromethyl)phenoxy]-N-1,3,4-thiadiazol-2-ylbenzenesulfonamide] |
| 14 | Nc1[nH]ncc1-c1cc(Cl)ccc1Oc1ccc(S(=O)(=O)Nc2cscn2)cc1Cl [Example 912, 4-[2-(5-amino-1H-pyrazol-4-yl)-4-chlorophenoxy]-3-chloro-N-1,3-thiazol-4-ylbenzenesulfonamide] |
| 2.8 | O=S(=O)(Nc1ncns1)c1ccc(Oc2ccc(OC(F)(F)F)cc2-c2ccnnc2)c(Cl)c1 [Example 900, 3-chloro-4-[2-pyridazin-4-yl-4-(trifluoromethoxy)phenoxy]-N-1,2,4-thiadiazol-5-ylbenzenesulfonamide] |
